Measured values: US20050113459A1, “Compositions for diabetes” (priority 2002, published 2005)

Key:
[1] = system: rats; conditions: daily dose of 1,200 mg/Kg for 52 weeks; cited from earlier work
[2] = system: model GK rats having Type II diabetes; assay: Glucose tolerance test in model GK rats having Type II diabetes fed coenzyme Q10 feedstuff; format: in vivo, rat
From the text: (§1) The improvement effects of the reduced coenzyme Q10 and the oxidized coenzyme Q10 on the glucose tolerance were examined using model GK rats (5 weeks old, male) having Type II diabetes. The rats were fed ad libitum with a powdered feedstuff containing 0.1 percent by weight of the reduced coenzyme Q10 (containing 2 percent by weight of the oxidized coenzyme Q10) or a feedstuff containing 0.1 percent by weight of the oxidized coenzyme Q10. In order to avoid the reduced coenzyme Q10 in the feedstuff mixture from decreasing due to oxidation, the feedstuff was completely replaced with a new one every two days. The control group was fed with a powdered feedstuff free of coenzyme Q10. The glucose tolerance test was conducted four weeks and six weeks after the feeding of the feedstuff mixture was started (n=4 in each group). In the glucose tolerance test, a 50% glucose solution was orally administered at a dose of 4 ml/kg, and the blood glucose level was measured before the administration and 30 minutes, 60 minutes, 90 minutes, and 120 minutes after the administration. The blood glucose level in blood collected from the tail vein was determined with a simple blood glucose meter.

[3] = system: GK rats; assay: Blood glycosylated hemoglobin (hemoglobin A1c) level of GK rats fed for 12 weeks; format: in vivo, rat; conditions: GK rats fed for 12 weeks with 0.1 wt% in feedstuff
From the text: as §1
The blood glycosylated hemoglobin (hemoglobin Alc) level of GK rats fed for 12 weeks was measured as in EXAMPLE 1. […]

[4] = 0.1 wt% in feedstuff, after six weeks of administration
[5] = after four weeks and six weeks of administration

SMILES | toxic effects in chronic toxicity test [1] | blood glucose level in comparison with the oxidized coenzyme Q10 group ([2]; 0.1 wt% in feedstuff, after four weeks of administration, all measurement times beginning with 30 minutes after the glucose load) | glucose tolerance in comparison with that after four weeks [2, 4] | blood glucose level ([2]; 0.1 wt% in feedstuff, after six weeks of administration, all measurement points of glucose tolerance test) [mg/dL] | increase in blood glucose level after glucose load ([2]; 0.1 wt% in feedstuff, after six weeks of administration, all measurement times) | blood glucose level 30 minutes after the peak, versus control group [2, 5] | Hemoglobin A1c level [3] [%] | increase in blood glucose level 30 minutes after the glucose load, in comparison with the control group ([2]; 0.1 wt% in feedstuff, after four weeks of administration, oral glucose load) | blood glucose level from about an hour after the glucose load, in comparison with the control group [2, 5]
COC1=C(OC)C(=O)C(C/C=C(\C)CC/C=C(\C)CC/C=C(\C)CC/C=C(\C)CC/C=C(\C)CC/C=C(\C)CC/C=C(\C)CC/C=C(\C)CC/C=C(\C)CCC=C(C)C)=C(C)C1=O [coenzyme Q10] | no toxic effects | – | – | – | – | – | – | – | –
COc1c(O)c(C)c(C/C=C(\C)CC/C=C(\C)CC/C=C(\C)CC/C=C(\C)CC/C=C(\C)CC/C=C(\C)CC/C=C(\C)CC/C=C(\C)CC/C=C(\C)CCC=C(C)C)c(O)c1OC [reduced coenzyme Q10] | – | sharply decreased | improved to a greater extent | ≤ 200 | strongly inhibited | significantly lower | 4.17 ± 0.15 | – | –
COC1=C(OC)C(=O)C(C/C=C(\C)CC/C=C(\C)CC/C=C(\C)CC/C=C(\C)CC/C=C(\C)CC/C=C(\C)CC/C=C(\C)CC/C=C(\C)CC/C=C(\C)CCC=C(C)C)=C(C)C1=O [oxidized coenzyme Q10, reference compound] | – | – | further improvements | – | – | – | 4.93 ± 0.42 | significantly inhibited | no large difference
